“And” between values parts separate entries of the source, which are not always exact repeats. Equal entries are not always repeated. Where two headings read alike, the source gives them in different places. Each block holds one compound with its values, some of them ahead of it.
Experiments:
[1] = PDA plasma and urine levels at baseline in five clinical studies; format: in vivo, human; conditions: for AUC(0-t) / Cmax / concentration at 0 min / CL renal: human; for AUC(0-t) / Cmax / concentration at 0 min: plasma; for AUC(0-t): AUC0-24h; for concentration at 0 min: predose (0 min) plasma concentration; for CL renal: CLR
OAT1 = molecular target: T1, OAT1 (Homo sapiens, UniProt Q4U2R8); test: PDA uptake in OAT1-transfected HEK293 cells and RAF scaling; format: in vitro ADME
T1 sequence (Q4U2R8 1-563): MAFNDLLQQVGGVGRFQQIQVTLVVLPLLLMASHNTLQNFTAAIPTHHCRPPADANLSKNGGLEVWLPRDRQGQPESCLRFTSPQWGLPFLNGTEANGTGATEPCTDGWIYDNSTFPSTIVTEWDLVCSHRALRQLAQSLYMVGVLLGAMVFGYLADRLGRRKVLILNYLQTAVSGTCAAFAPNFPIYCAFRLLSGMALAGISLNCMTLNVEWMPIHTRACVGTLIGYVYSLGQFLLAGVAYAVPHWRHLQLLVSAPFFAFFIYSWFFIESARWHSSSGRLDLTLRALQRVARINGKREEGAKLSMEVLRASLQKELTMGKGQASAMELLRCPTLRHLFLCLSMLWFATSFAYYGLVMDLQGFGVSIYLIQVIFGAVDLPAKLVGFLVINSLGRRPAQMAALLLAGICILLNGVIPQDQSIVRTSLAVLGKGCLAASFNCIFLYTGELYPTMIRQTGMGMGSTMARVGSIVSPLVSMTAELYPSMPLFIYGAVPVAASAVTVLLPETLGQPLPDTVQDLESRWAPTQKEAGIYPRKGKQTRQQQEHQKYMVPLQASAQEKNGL

OAT2 = molecular target: T2, OAT2 (Homo sapiens, UniProt Q9Y694); test: PDA uptake in OAT2-transfected HEK293 cells and RAF scaling; format: in vitro ADME
T2 sequence (Q9Y694 1-546 isoform Q9Y694-2): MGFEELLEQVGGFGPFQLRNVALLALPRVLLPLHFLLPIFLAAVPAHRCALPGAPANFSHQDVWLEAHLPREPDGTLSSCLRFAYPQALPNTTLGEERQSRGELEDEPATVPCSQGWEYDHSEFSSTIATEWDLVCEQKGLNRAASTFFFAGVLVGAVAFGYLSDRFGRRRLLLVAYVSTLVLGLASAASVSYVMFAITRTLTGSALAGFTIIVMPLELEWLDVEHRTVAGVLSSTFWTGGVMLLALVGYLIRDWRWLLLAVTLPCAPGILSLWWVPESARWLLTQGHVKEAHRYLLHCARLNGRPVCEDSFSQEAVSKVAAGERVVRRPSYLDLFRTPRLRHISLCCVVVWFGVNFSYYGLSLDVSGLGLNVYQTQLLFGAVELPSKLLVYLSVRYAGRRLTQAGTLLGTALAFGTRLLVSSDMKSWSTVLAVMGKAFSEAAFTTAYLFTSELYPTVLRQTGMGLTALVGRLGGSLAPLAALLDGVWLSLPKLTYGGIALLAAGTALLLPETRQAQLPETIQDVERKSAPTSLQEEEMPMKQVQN

OAT3 [2] = molecular target: T3, OAT3 (Homo sapiens, UniProt Q8TCC7); test: PDA uptake in OAT3-transfected HEK293 cells and RAF scaling; format: in vitro ADME
T3 sequence (Q8TCC7 1-542): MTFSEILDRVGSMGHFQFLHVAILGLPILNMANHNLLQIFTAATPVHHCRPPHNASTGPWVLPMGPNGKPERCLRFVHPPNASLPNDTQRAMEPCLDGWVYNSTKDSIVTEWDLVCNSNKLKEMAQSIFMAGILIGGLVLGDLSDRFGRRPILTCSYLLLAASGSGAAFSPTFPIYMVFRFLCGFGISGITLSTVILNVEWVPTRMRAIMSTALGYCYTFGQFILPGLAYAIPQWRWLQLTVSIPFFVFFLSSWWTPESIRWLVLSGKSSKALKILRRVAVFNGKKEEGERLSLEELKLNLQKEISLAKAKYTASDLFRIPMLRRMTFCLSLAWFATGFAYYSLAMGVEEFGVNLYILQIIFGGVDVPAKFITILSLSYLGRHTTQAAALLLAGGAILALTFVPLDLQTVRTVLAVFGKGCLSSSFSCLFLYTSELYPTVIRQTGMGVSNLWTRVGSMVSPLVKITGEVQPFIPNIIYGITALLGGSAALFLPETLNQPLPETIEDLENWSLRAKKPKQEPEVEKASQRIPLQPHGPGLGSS

[3] = parameters: species or system human; conditions: PDA; in vitro-in vivo scaling
OAT1/3 [4] = conditions: PDA, cited from earlier work
[5] = PDA, cited from earlier work
OAT1/3 [6] = test: Effect of OAT inhibitors on PDA pharmacokinetics in clinical DDI studies; conditions: for AUC ratio / Cmax ratio: PDA; for AUC(0-t) / Cmax: both, human, in vivo
OAT3 [7] = molecular target: T3, OAT3; test: Inhibition of OAT3-mediated uptake in transfected HEK293 cells; format: in vitro ADME; conditions: from in vitro IC50 values
[8] = both, PDA plasma, Study 1 baseline (no inhibitor), n=12
[9] = both, PDA plasma, Study 2 baseline, n=12
[10] = both, PDA plasma, Study 3 baseline, n=12
[11] = male, PDA plasma, Study 5 baseline, males, n=23
[12] = physiological scalars and relative activity factors
[13] = Shen 2019 Study 1, presence/absence of probenecid
[14] = Shen 2019 Study 1, probenecid 1000 mg single oral dose
[15] = Shen 2019 Study 2, presence/absence of probenecid
[16] = Shen 2019 Study 2, probenecid 1000 mg single oral dose
[17] = Willemin 2021, presence/absence of probenecid
[18] = Willemin 2021, probenecid 500 mg multiple oral doses
[19] = presence/absence of probenecid 1000 mg BID, Study 1
[20] = presence/absence of ritlecitinib 200 mg QD, Study 2

intra-individual variability in plasma concentration across 0-24 h ([1]; PDA): 16 % CV | amount excreted unchanged in urine lower in White males than Japanese males ([1]; PDA, Studies 4 and 5): 35% | variability in predose plasma concentrations and AUC0-24h ([1]; PDA, across the five studies): < 6 fold | inter-individual (overall) variability in plasma concentration ([1]; PDA, all five studies, n = 71): ~ 40% and < 40% | overall variability in AUC0-24h ([1]; PDA, five studies): 38% | overall variability in predose plasma concentration ([1]; PDA, five studies): 44% | AUC0-24h / baseline plasma level higher in White males than Japanese males ([1]; PDA, p < 0.05): 38% | CLR lower in White males than Japanese males ([1]; PDA, p < 0.05): ~ 54% | amount excreted in urine higher in Japanese males than White males ([1]; PDA, p < 0.05): 1.5 fold | renal clearance higher in Japanese males than White males ([1]; PDA, p < 0.05): 2.2 fold and ~ 2.2 fold | average AUC0-24h and Cmax lower in Hispanic/Latino compared to Whites ([1]; PDA, p > 0.05): ~ 30% | AUC0-24h higher in Study 5 compared to Study 4 ([1]; PDA, ~70% White males vs all Japanese males): 35% | AUC(0-t) [1, 8]: 86.7 ± 47.4 ng·h/mL | AUC(0-t) [1, 9]: 70.5 ± 24.3 ng·h/mL | AUC(0-t) [1, 10]: 64.2 ± 21.2 ng·h/mL | Cmax [1, 8]: 4.6 ± 2.5 ng/mL | Cmax [1, 9]: 3.8 ± 1.3 ng/mL | Cmax [1, 10]: 3.5 ± 1.1 ng/mL | concentration at 0 min ([1]; both, mean, PDA, across the five studies): 3.3 ng/mL | concentration at 0 min ([1]; both, range, PDA, across the five studies): 1.6 to 9.2 ng/mL | AUC(0-t) ([1]; male, PDA plasma baseline, males only, Japanese (13)): 56.5 ± 15.2 ng·h/mL | AUC(0-t) ([1]; male, PDA plasma baseline, males only, White (37)): 78.2 ± 28.2 ng·h/mL | AUC(0-t) [1, 11]: 74.6 ± 15.7 ng·h/mL | Cmax [1, 11]: 4.6 ± 1.9 ng/mL | CL renal ([1]; male, urine and plasma, PDA, Study 5 baseline): 230 ± 54.2 mL/min | CL renal ([1]; male, urine, PDA, Japanese males (13)): 546 ± 122 mL/min | CL renal ([1]; male, urine, PDA, White males (16)): 250 ± 48.2 mL/min | ft (fraction transported) OAT1 (OAT1; PDA renal secretion): < 0.1 | contribution of OAT1-specific active secretion to total CLR (OAT1; PDA, in vitro-in vivo scaling): 7% | active uptake clearance via OAT1, scaled (OAT1; [12]): 3.31 mL/min/kg | ft (fraction transported) OAT2 (OAT2; PDA renal secretion): < 0.1 | contribution of OAT2-specific active secretion to total CLR (OAT2; PDA, in vitro-in vivo scaling): 6% | active uptake clearance via OAT2, scaled (OAT2; [12]): 0.35 mL/min/kg | ft (fraction transported) OAT3 (OAT3 [2]; PDA renal secretion): 0.82 | active uptake clearance via OAT3, scaled (OAT3 [2]; [12]): 7.55 mL/min/kg | contribution of glomerular filtration to total CLR [3]: 5% and ~ 5% | AUC ratio (OAT1/3 [6]; [19]): 3.2 | Cmax ratio (OAT1/3 [6]; [19]): 3 | AUC ratio (OAT1/3 [6]; [20]): 1.1 | Cmax ratio (OAT1/3 [6]; [20]): 1.1 | AUC ratio (OAT1/3 [6]; presence/absence of tafamidis 61 mg, Study 3): 1.2 | AUC(0-t) (OAT1/3 [6]; 200 mg): 72.8 ± 22.6 ng·h/mL | Cmax (OAT1/3 [6]; 200 mg): 3.9 ± 1 ng/mL | AUC(0-t) (OAT1/3 [6]; 1000 mg): 235 ± 76 ng·h/mL | Cmax (OAT1/3 [6]; 1000 mg): 11.9 ± 3.4 ng/mL
SMILES: Cc1ncc(CO)c(C(=O)O)c1O [PDA, Pyridoxic acid]
inter-individual variability in predose plasma concentrations (OAT1/3 [4]; Indian population): 33 fold and ~ 33 fold | AUC0-24h (OAT1/3 [4]; Shen 2019 Study 1, baseline): 46 ± 53.7 ng·h/mL | CLR (OAT1/3 [4]; Shen 2019 Study 1, baseline): 226.7 ± 268.3 mL/min | Cmax (OAT1/3 [4]; Shen 2019 Study 1, baseline): 3.3 ± 4.6 ng/mL | AUC ratio (OAT1/3 [4]; [13]): 3.1 | CLR ratio (OAT1/3 [4]; [13]): 0.37 | Cmax ratio (OAT1/3 [4]; [13]): 3.1 | AUC0-24h (OAT1/3 [4]; [14]): 116 ± 151 ng·h/mL | CLR (OAT1/3 [4]; [14]): 65 ± 55 mL/min | Cmax (OAT1/3 [4]; [14]): 9.3 ± 11.5 ng/mL | AUC0-24h (OAT1/3 [4]; Shen 2019 Study 2, baseline): 57.9 ± 75.7 ng·h/mL | CLR (OAT1/3 [4]; Shen 2019 Study 2, baseline): 221.7 ± 221.7 mL/min | Cmax (OAT1/3 [4]; Shen 2019 Study 2, baseline): 3.6 ± 4.5 ng/mL | AUC ratio (OAT1/3 [4]; [15]): 3.2 | CLR ratio (OAT1/3 [4]; [15]): 0.4 | Cmax ratio (OAT1/3 [4]; [15]): 3.4 | AUC0-24h (OAT1/3 [4]; [16]): 152 ± 174 ng·h/mL | CLR (OAT1/3 [4]; [16]): 67.6 ± 41.2 mL/min | Cmax (OAT1/3 [4]; [16]): 10.1 ± 10.2 ng/mL | AUC0-24h (OAT1/3 [4]; Willemin 2021, baseline): 71.8 ± 21.3 ng·h/mL | CLR (OAT1/3 [4]; Willemin 2021, baseline): 328.3 ± 203.3 mL/min | Cmax (OAT1/3 [4]; Willemin 2021, baseline): 3.6 ± 0.8 ng/mL | AUC ratio (OAT1/3 [4]; [17]): 3.7 | CLR ratio (OAT1/3 [4]; [17]): 0.17 | Cmax ratio (OAT1/3 [4]; [17]): 3.7 | AUC0-24h (OAT1/3 [4]; [18]): 271 ± 93 ng·h/mL | CLR (OAT1/3 [4]; [18]): 53.3 ± 25 mL/min | Cmax (OAT1/3 [4]; [18]): 13.7 ± 4.1 ng/mL | fu,plasma [5]: 0.08–0.1 | fu,plasma ([5]; ref 13 (supplement ref 7)): 0.092

potency as inhibitor for OAT3 versus OAT1 (OAT3 [7]): 5 fold
SMILES: CCCN(CCC)S(=O)(=O)c1ccc(C(=O)O)cc1 [Probenecid]

change in PDA plasma concentration in the clinic (OAT1/3 [6]; ritlecitinib): no‐change | change in the AUC0-24h and Cmax of PDA (OAT1/3 [6]; ritlecitinib administration, Study 2): no significant change
SMILES: C=CC(=O)N1C[C@H](Nc2ncnc3[nH]ccc23)CC[C@@H]1C [Ritlecitinib]

— paper PMC12072223 (CPT: Pharmacometrics & Systems Pharmacology, 2025)
